The test system of test [1] is TNF-stimulated IL8 production by human neutrophils. Briefly: TNF-stimulated IL-8 production from human neutrophils.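 Also: IL-8 in cell-free supernatant quantified by sandwich ELISA, inhibition calculated against a compound-free control.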 It counts as cell-based. The settings on record: Neutrophil, TNF 100 ng/ml, about 20 hrs, bounds reflect the top concentration screened, for 202(c) and 120 a range over multiple runs with ends given as 'greater than'.
Protocol: TNF-Stimulated IL-8 Production from Human Neutrophils
The effect of test compounds on TNF-stimulated IL8 production by human neutrophils is measured as follows. Neutrophils are prepared from blood obtained from consenting donors, using standard methods. Blood is collected in heparinized syringes and layered over histopaque (30 ml/20 ml). Following centrifugation, the red cell pellet is resuspended in PBS and purified over a dextran gradient. […] Cells are added (0.5-1 ml) to 48 well plates already containing compound at 1000× final concentration in neat DMSO or 10% DMSO in RPMI1640 with 10% FBS. TNF (final concentration 100 ng/ml) is used as the stimulus. Cells incubated for approximately 20 hrs at 37° C., 5% CO2. Levels of IL-8 in the cell free supernatant are determined by sandwich ELISA, and inhibition relative to a control with DMPO but no compound is calculated.
For test [2], the target named is T1, Recombinant human p38α (Homo sapiens, UniProt Q16539).
T1 construct: His; made in house
T1 sequence (Q16539 whole entry): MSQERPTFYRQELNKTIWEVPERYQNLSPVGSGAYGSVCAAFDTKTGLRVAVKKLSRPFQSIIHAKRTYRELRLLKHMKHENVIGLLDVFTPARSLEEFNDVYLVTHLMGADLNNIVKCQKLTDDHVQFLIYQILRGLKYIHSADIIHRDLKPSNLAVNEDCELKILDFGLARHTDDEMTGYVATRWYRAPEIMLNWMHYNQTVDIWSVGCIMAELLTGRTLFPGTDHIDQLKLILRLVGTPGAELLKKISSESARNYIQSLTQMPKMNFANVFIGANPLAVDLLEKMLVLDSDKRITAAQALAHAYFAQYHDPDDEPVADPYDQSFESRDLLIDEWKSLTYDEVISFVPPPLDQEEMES
The test is described as follows: Fluorescence anisotropy kinase binding assay (standard and low volume). The settings on record: for IC50: 12 nM p38α, 5 nM fluorescent ligand, 5.1 to 8.4 is stated collectively for the listed examples, read-out: pIC50, fluorescence anisotropy kinase binding assay (converted); for pIC50: no IC50 at a concentration of less than 16 uM, read-out: IC50, fluorescence anisotropy kinase binding assay. From the text: Fluorescence Anisotropy Kinase Binding Assay—Standard Volume
The concentration of kinase enzyme should preferably be ≧2×Kf. The concentration of fluorescent ligand required will depend on the instrumentation used, and the fluorescent and physicochemical properties. The concentration used must be lower than the concentration of kinase enzyme, and preferably less than half the kinase enzyme concentration.
The fluorescent ligand is the following compound:
which is derived from 5-[2-(4-aminomethylphenyl)-5-pyridin-4-yl-1H-imidazol-4-yl]-2-chlorophenol and rhodamine green.
Recombinant human p38α was expressed as a GST-tagged protein. To activate this protein, 3.5 μM unactivated p38α was incubated in 50 mM Tris-HCl pH 7.5, 0.1 mM EGTA, 0.1% 2-mercaptoethanol, 0.1 mM sodium vanadate, 10 mM MgAc, 0.1 mM ATP with 200 nM MBP-MKK6 DD at 30 degrees for 30 mins. Following activation p38α was re-purified and the activity assessed using a standard filter-binding assay.
Protocol: All components are dissolved in buffer of composition 62.5 mM HEPES, pH 7.5, 1.25 mM CHAPS, 1 mM DTT, 12.5 mM MgCl2 with final concentrations of 12 nM p38α and 5 nM fluorescent ligand. 30 μl of this reaction mixture is added to wells containing 1 μl of various concentrations of test compound (0.28 nM-16.6 μM final) or DMSO vehicle (3% final) in NUNC 384 well black microtitre plate and equilibrated for 30-60 mins at room temperature. Fluorescence anisotropy is read in Molecular Devices Acquest (excitation 485 nm/emission 535 nm).
Definitions: Ki=dissociation constant for inhibitor binding • Kf=dissociation constant for fluorescent ligand binding
Fluorescence Anisotropy Kinase Binding Low Volume Assay
The concentration of kinase enzyme should preferably be 2×Kf. The concentration of fluorescent ligand required will depend on the instrumentation used, and the fluorescent and physicochemical properties. The concentration used must be lower than the concentration of kinase enzyme, and preferably less than half the kinase enzyme concentration.
Protocol: All components are dissolved in buffer of composition 62.5 mM HEPES, pH 7.5, 1.25 mM CHAPS, 1 mM DTT, 12.5 mM MgCl2 with final concentrations of 12 nM p38α and 5 nM fluorescent ligand. 30 μl of this reaction mixture is added to wells containing 0.1 μl of various concentrations of test compound (0.02 nM-25 μM final) or DMSO vehicle (1.7% final) in Greiner low volume 384 well black microtitre plate and equilibrated for 30-60 mins at room temperature. Fluorescence anisotropy is read in Molecular Devices Acquest (excitation 485 nm/emission 535 nm).
It is noted that there are two assay formats shown above for the Fluorescence anisotropy kinase binding assay. The only difference between these two assays is the volume used and the plate type. […] The results described herein may have been performed in either assay format and are not differentiated as to which.
A general note: In fluorescence polarisation assays a small probe gives low polarisation when free and higher when bound to something large.

Test [3] relates to LPS-stimulated TNFalpha production in human whole blood. The test is described as follows: LPS-stimulated cytokine production in human whole blood. Type of test: cell-based. The settings on record: LPS 50 ng/ml final, 4 hour incubation, read-out: IC50, LPS-stimulated TNF-alpha production in human whole blood.
Protocol: LPS-Stimulated Cytokine Production in Human Whole Blood
Assay: Test compound concentrations were prepared at 10× concentrations and LPS prepared at 1 ug/ml (final conc. of 50 ng/ml LPS) and added in 50 uL volumes to 1.5 mL eppendorf tubes. Heparinized human whole blood was obtained from healthy volunteers and was dispensed into eppendorf tubes or multiwell plates containing compounds and LPS in 0.2-0.4 mL volumes and the tubes incubated at 37 C. In some studies, compound was incubated with blood for up to 30 min prior to addition of LPS. Following a 4 hour incubation, the tubes or plates were centrifuged to remove cells and plasma was withdrawn and frozen at −80 C.
Cytokine measurement: IL-Ibeta and/or TNFalpha were quantified using a standardized ELISA, or similar technology.
In test [4] the target is T1, Recombinant human p38α. Briefly: Time-resolved fluorescence resonance energy transfer (TR-FRET) kinase assay (standard and low volume). It counts as biochemical. The settings on record: for IC50: for 97(b) and 115 a broad range over multiple runs, lower end less than 4.6, read-out: pIC50, TR-FRET p38α kinase assay (converted). The procedure:
Time-Resolved Fluorescence Resonance Energy Transfer Linase Standard Assay
Recombinant human p38α was expressed as a His-tagged protein. To activate this protein, 3 μM unactivated p38α was incubated in 200 mM Hepes pH 7.4, 625 mM NaCl, 1 mM DTT with 27 nM active MKK6 (Upstate), 1 mM ATP and 10 mM MgCl2 The activity of the MKK6-activated p38α was assessed using a time-resolved fluorescence resonance energy transfer (TR-FRET) assay.
Biotinylated-GST-ATF2 (residues 19-96, 400 nM final), ATP ([…]) and MgCl2 (5 mM final) in assay buffer (40 mM HEPES pH 7.4, 1 mM DTT) were added to wells containing 1 ul of various concentrations of compound or DMSO vehicle (3% final) in NUNC 384 well black plate. The reaction was initiated by the addition of MKK6-activated p38 (100 pM final) to give a total volume of 30 ul. The reaction was incubated for 120 minutes at room temperature, then terminated by the addition of 15 μl of 100 mM EDTA pH 7.4. Detection reagent (15 μl) in buffer (100 mM HEPES pH 7.4, 150 mM NaCl, 0.1% w/v BSA, 1 mM DTT) containing antiphosphothreonine-ATF2-71 polyclonal antibody (Cell Signalling Technology, Beverly Mass., USA) labelled with W-1024 europium chelate (Wallac O Y, Turku, Finland), and APC-labelled streptavidin (Prozyme, San Leandro, Calif., USA) was added and the reaction was further incubated for 60 minutes at room temperature. The degree of phosphorylation of GST-ATF2 was measured using a Packard Discovery plate reader (Perkin-Elmer Life Sciences, Pangbourne, UK) as a ratio of specific 665 nm energy transfer signal to reference europium 620 nm signal.
Time-Resolved Fluorescence Resonance Energy Transfer Kinase Low Volume Assay
Recombinant human p38α was expressed as a His-tagged protein. To activate this protein, 3 μM unactivated p38α was incubated in 200 mM Hepes pH7.4, 625 mM NaCl, 1 mM DTT with 27 nM active MKK6 (Upstate), 1 mM ATP and 10 mM MgCl2 The activity of the MKK6-activated p38α was assessed using a time-resolved fluorescence resonance energy transfer (TR-FRET) assay.
Biotinylated-GST-ATF2 (residues 19-96, 400 nM final), ATP (125 μM final) and MgCl2 (5 mM final) in assay buffer (40 mM HEPES pH 7.4, 1 mM DTT) were added to wells containing 0.1 μl of various concentrations of compound or DMSO vehicle (1.7% final) in Greiner low volume 384 well black plate. The reaction was initiated by the addition of MKK6-activated p38α (100 pM final) to give a total volume of 6 μl. […] The degree of phosphorylation of GST-ATF2 was measured using a BMG Rubystar plate reader (BMG, UK) as a ratio of specific 665 nm energy transfer signal to reference europium 620 nm signal.
It is noted that there are two assay formats shown above for the Time-resolved fluorescence resonance energy transfer kinase assay. […]
A general note: In TR-FRET formats the signal depends on donor and acceptor labels being close together.

In test [5] the test system is influx of neutrophils to the lung in LPS-challenged rats. Briefly: Rat LPS neutrophilia model. Type of test: in vivo. The settings on record: LPS aerosol, intratracheal dosing, in at least one of the range of conditions tested, significance p<0.05. In short, it runs like this:
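Compound given intratracheally (200 ul suspension or dry powder via microsprayer) to isoflurane-anesthetized rats 15 min–24 h before 15 min LPS aerosol (100 ug/ml). Lavage 4 h post-challenge; neutrophils from differential counts. % inhibition versus no-compound controls at a given concentration and pretreat time.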

The values that follow come from US20100144755A1 (Glaxo Group Limited, priority 2006, published 2010).

pIC50: −log10 of the molar value. Where a name gives a salt, the structure may show the parent alone.

A word on the pIC50: it is the IC50 on a negative log10 scale, so that one unit is a factor of ten. In the case of `CSc1nc(Cl)c2ccc(=O)n(-c3c(F)cccc3F)c2n1` [Example 1(a), 4-chloro-8-(2,6-difluorophenyl)-2-(methylthio)pyrido[2,3-d]pyrimidin-7(8H)-one], the pIC50 in test [1] was < 7.00; in test [2], ≤ 4.80. In addition, the IC50 in test [2] is > 15.8 µM.
Take `Cc1ccc(NC(=O)c2cccs2)cc1-c1nc(NC2CC(C)(C)NC(C)(C)C2)nc2c1ccc(=O)n2-c1c(F)cccc1F` [Example 9, N-(3-{8-(2,6-difluorophenyl)-7-oxo-2-[(2,2,6,6-tetramethyl-4-piperidinyl)amino]-7,8-dihydropyrido[2,3-d]pyrimidin-4-yl}-4-methylphenyl)-2-thiophenecarboxamide]: the pIC50 in test [1] is < 7.00. Also, in test [2], the IC50 was > 15.8 µM and the negative logarithm of the IC50 (pIC50) was ≤ 4.80.
In the case of `Cc1ccc(C(=O)NCCc2ccccc2)cc1-c1nc(NC(CO)CO)nc2c1ccc(=O)n2-c1c(F)cccc1F` [Example 93, 3-(8-(2,6-difluorophenyl)-2-{[2-hydroxy-1-(hydroxymethyl)ethyl]amino}-7-oxo-7,8-dihydropyrido[2,3-d]pyrimidin-4-yl)-4-methyl-N-(2-phenylethyl)benzamide trifluoroacetate], the pIC50 in test [3] is < 6.00.
As for `O=C(O)c1cccc(-c2nc(NC(CO)CO)nc3c2ccc(=O)n3-c2ccc(F)cc2F)c1` [Example 96(d), 3-(8-(2,4-difluorophenyl)-2-{[2-hydroxy-1-(hydroxymethyl)ethyl]amino}-7-oxo-7,8-dihydropyrido[2,3-d]pyrimidin-4-yl)benzoic acid], in test [2], the IC50 is > 15.8 µM and the pIC50 is ≤ 4.80.
In the case of `Cc1ccc(C(=O)O)cc1-c1nc(-n2ccnc2CN)nc2c1ccc(=O)n2-c1c(F)cccc1F` [Example 97(b), 3-[2-[2-(aminomethyl)-1H-imidazol-1-yl]-8-(2,6-difluorophenyl)-7-oxo-7,8-dihydropyrido[2,3-d]pyrimidin-4-yl]-4-methylbenzoic acid trifluoroacetate], in test [4], the IC50 is ≥ 0.0398 µM. Further, the pIC50 in test [3] was < 6.00.
For the compound `Cc1ccc(C(=O)NC(C)C)cc1-c1nc(N(C)CCN(C)C)nc2c1ccc(=O)n2-c1c(F)cccc1F` [Example 100, 3-{8-(2,6-difluorophenyl)-2-[[2-(dimethylamino)ethyl](methyl)amino]-7-oxo-7,8-dihydropyrido[2,3-d]pyrimidin-4-yl}-4-methyl-N-(1-methylethyl)benzamide], in test [3], the pIC50 is < 6.00.
Consider `Cc1ccc(C(=O)Nc2ccc(F)cc2)cc1-c1nc(N(C)CCCN(C)C)nc2c1ccc(=O)n2-c1c(F)cccc1F` [Example 115, 3-{8-(2,6-difluorophenyl)-2-[[3-(dimethylamino)propyl](methyl)amino]-7-oxo-7,8-dihydropyrido[2,3-d]pyrimidin-4-yl}-N-(4-fluorophenyl)-4-methylbenzamide], for which, in test [4], the IC50 was ≥ 0.0398 µM. For the same compound, in test [5], the inhibition of neutrophilia entry is given as “statistically nonsignificant inhibition”.
For `CCN(CC)CCCNc1nc(-c2ccc(C(=O)O)cc2)c2ccc(=O)n(-c3c(F)cccc3F)c2n1` [Example 188(a), 4-[2-{[3-(diethylamino)propyl]-amino}-8-(2,6-difluorophenyl)-7-oxo-7,8-dihydropyrido[2,3-d]pyrimidin-4-yl]benzoic acid], the IC50 in test [4] is > 15.8 µM. The negative-log IC50 (pIC50) in test [4] (no IC50 at a concentration of less than 16 uM, read-out: IC50, TR-FRET p38α kinase assay) is ≤ 4.80; in test [1], < 7.00.
